Data published in patent US20120214736A1, “COMPOSITIONS AND METHODS FOR THE MODULATION OF JNK PROTEINS” (Isis Pharmaceuticals, Inc., priority 2006, published 2012).
In the oligonucleotide strings, read from the 5' end, every base follows the letter of its sugar. An asterisk marks phosphorothioate; unmarked linkages are phosphodiester. Other units and linkages are bracketed, terminal groups are in braces. A string of capitals states the bases alone. e = 2'-O-(2-methoxyethyl) (MOE); [5mC] = 5-methylcytosine; d = 2'-deoxy (DNA)

Key:
[1] = tested on: JNK1 mRNA; assay: Northern assay, JNK1 mRNA expression in A549 cells; format: cell-based, human; settings: for RNA % Inhibition: 300 nM for initial 20 hours then 200 nM for 4 hours; for response of JNK1 mRNA levels in A549 cells (dose and sequence dependence): 50, 100, 200 and 400 nM
Method: (§1) In order to evaluate the activity of potential JNK-modulating oligonucleotides, human lung carcinoma cell line A549 (American Type Culture Collection, Rockville, Md. No. ATCC CCL-185) cells or other cell lines as indicated in the Examples, were grown and treated with oligonucleotides or control solutions as detailed below. After harvesting, cellular extracts were prepared and examined for specific JNK mRNA levels or JNK protein levels (i.e., Northern or Western assays, respectively). In all cases, “% expression” refers to the amount of JNK-specific signal in an oligonucleotide-treated cell relative to an untreated cell (or a cell treated with a control solution that lacks oligonucleotide).
(§2) Northern Assays The mRNA expression of each JNK protein was determined by using a nucleic acid probe specifically hybridizable thereto. Nucleic acid probes specific for JNK1, JNK2 and JNK3 are described in Examples 3, 4 and 5, respectively. The probes were radiolabelled by means well known in the art (see, e.g., Short Protocols in Molecular Biology, 2nd Ed., Ausubel et al., Eds., John Wiley & Sons, New York, 1992, pages 3-11 to 2-3-44 and 4-17 to 4-18; Ruth, Chapter 6 In: Methods in Molecular Biology, Vol. 26: Protocols for Oligonucleotide Conjugates, Agrawal, ed., Humana Press Inc., Totowa, N.J., 1994, pages 167-185; and Chapter 10 In: Molecular Cloning: A Laboratory Manual, 2nd Ed., Sambrook et al., Eds., pages 10.1-10.70). The blots were stripped and reprobed with a ^32P-labeled glyceraldehyde 3-phosphate dehydrogenase (G3PDH) probe (Clontech Laboratories, Inc., Palo Alto, Calif.) in order to confirm equal loading of RNA and to allow the levels of JNK transcripts to be normalized with regard to the G3PDH signals.
(§3) A549 cells were grown in T-75 flasks until 80-90% confluent. At this time, the cells were washed twice with 10 mL of media (DMEM), followed by the addition of 5 mL of DMEM containing 20 ┘g/mL of LIPOFECTIN™ (i.e., 1:1 (w/w) DOTMA/DOPE, Life Technologies, Gaithersburg, Md.; DOTMA=N-[1-(2,3-dioleyoxy)propyl]-N,N,N-trimethylammonium chloride; DOPE=dioleoyl phosphatidylethanolamine). The oligonucleotides were added from a 10 μM stock solution to a final concentration of 400 nM, and the two solutions were mixed by swirling the flasks. As a control, cells were treated with LIPOFECTIN™ without oligonucleotide under the same conditions and for the same times as the oligonucleotide-treated samples. After 4 hours at 37° C., the medium was replaced with fresh DMEM containing 10% serum. The cells were allowed to recover for 18 hours. Total cellular RNA was then extracted in guanidinium, subject to gel electrophoresis and transferred to a filter according to techniques known in the art (see, e.g., Chapter 7 In: Molecular Cloning: A Laboratory Manual, 2nd Ed., Sambrook et al., Eds., pages 7.1-7.87, and Short Protocols in Molecular Biology, 2nd Ed., Ausubel et al., Eds., John Wiley & Sons, New York, 1992, pages 2-24 to 2-30 and 4-14 to 4-29). Filters were typically hybridized overnight to a probe specific for the particular JNK gene of interest in hybridization buffer (25 mM KPO4, pH 7.4; 5×SSC; 5×Denhardt's solution, 100 µg/ml Salmon sperm DNA and 50% formamide) (Alahari et al., Nucl. Acids Res., 1993, 21, 4079). This was followed by two washes with 1×SSC, 0.1% SDS and two washes with 0.25×SSC, 0.1% SDS. Hybridizing bands were visualized by exposure to X-OMAT AR film and quantitated using a PHOSPHORIMAGER™ essentially according to the manufacturer's instructions (Molecular Dynamics, Sunnyvale, Calif.).
JNK1-specific probes: In initial screenings of a set of oligonucleotides derived from the JNK1 sequence (Table 2) for biological activity, a cDNA clone of JNK1 (Derijard et al., Cell, 1994, 76, 1025) was radiolabeled and used as a JNK1-specific probe in Northern blots. Alternatively, however, one or more of the oligonucleotides of Table 1 is detectably labeled and used as a JNK1-specific probe. […]

[2] = tested on: JNK2 mRNA; assay: Northern assay, JNK2 mRNA expression in A549 cells; format: cell-based, human; settings: for response of JNK2 mRNA levels in A549 cells (dose and sequence dependence): 50, 100, 200 and 400 nM
Method: as §1, §2
as §3, with “This was followed by two washes with 1×SSC, 0.1% SDS and two washes with 0.25×SSC, 0.1% SDS.” left out, “Calif.). […]” for “Calif.).”

[3] = tested on: rat JNK1 mRNA; assay: Northern assay, rat JNK1 mRNA levels in A10 aortic smooth muscle cells; format: cell-based; settings: Northern assays
Method: (§4) In order to study the role of JNK proteins in animal models, oligonucleotides targeted to the genes encoding JNK1, JNK2 and JNK3 of Rattus norvegicus were prepared. These oligonucleotides are 2′-methoxyethoxy, phosphodiester/2′-hydroxyl, phosphorothioate/2′-methoxyethoxy, phosphodiester “gapmers” in which every cytosine residue is 5-methylcytosine (m5c). These antisense compounds were synthesized according to the methods of the disclosure. Certain of these oligonucleotides are additionally specifically hybridizable to JNK genes from other species as indicated herein. The oligonucleotides described in this Example were tested for their ability to modulate rat JNK mRNA levels essentially according to the methods described in the preceding Examples, with the exceptions that the cell line used was rat A10 aortic smooth muscle cells (ATCC No. ATCC CRL-1476) and the probes used were specific for rat JNK1, JNK2 or JNK3 (see infra). A10 cells were grown and treated with oligonucleotides essentially as described by (Cioffi et al. Mol. Pharmacol., 1997, 51, 383).
(§5) These antisense compounds were tested for their ability to modulate levels of (JNK1) and (JNK2) mRNA in A10 cells via Northern assays. Due to the high degree of sequence identity between the human and rat genes, radiolabeled human JNK1 (Example 3) and JNK2 (Example 4) cDNAs functioned as specific probes for the rat homologs. […]

[4] = tested on: human JNK2 mRNA; assay: Northern analysis, human JNK2 mRNA in Jurkat cells (electroporation, dose response); format: cell-based; settings: Jurkat cells
Method: Jurkat cells were routinely cultured in RPMI Medium 1640 (Gibco/Life Technologies, Gaithersburg, Md.) supplemented with 20% fetal calf serum (Gibco/Life Technologies, Gaithersburg, Md.). Cells were routinely passaged by aspirating media that contained excess cells and replenishing with new media.
For electroporation, cells were diluted to 28×10^6 cells/mL and placed into 1 mm electroporation cuvettes. Electroporation is performed by treating with 1-20 μM oligonucleotide, at 160 Volts for 6 msec. The entire electroporated samples are then placed into 5 mL of 10% FBS/RPMI Medium 1640 in 100 mm plates. Plates are then left overnight at 37° C./5% CO2.
Each sample is then transferred to 15 mL conical tubes and spun down at 1200 rpm for 5 minutes followed by aspiration of the supernatant. Cells are then suspended in 5 mL PBS followed by a second centrifugation at 1200 rpm for 5 minutes followed by aspiration of the supernatant. Cells are then washed and lysed. Following the lysis step, total cellular RNA is then isolated using the RNEASY kit (Qiagen, Santa Clarita, Calif.) as described in other examples herein.
In accordance with the present invention, Jurkat cells were treated by electroporation with 1, 5 or 20 uM ISIS 101759 or the control oligonucleotide and mRNA levels of human JNK2 were quantitated by Northern analysis.

[5] = tested on: TNFa-induced JNK activity; assay: TNFa-induced JNK activity in HUVEC (GST-c-Jun phosphorylation); format: cell-based, human; settings: 100 nM, 5 ng/ml TNFa 15 minutes, compared to a control oligonucleotide
Method: Human umbilical vein endothelial cells (HUVEC, Clonetics, San Diego Calif.) were incubated with oligonucleotide with LipofectinJ in Opti-MEMJ for 4 hours at 37° C./5% CO2. The medium was then replaced with 1% FBS/EGM (Clonetics, Walkersville Md.) and incubated for 24 hours at 37° C./5% CO2. Cells were treated with 5 ng/ml TNFa for 15 minutes before lysis. JNK activity was determined by incubating lysates (normalized for protein) with immobilized GST-c-Jun fusion protein (e.g., New England Biolabs, Beverly, Mass.)+^32P-ATP. GST-c-Jun beads were washed and SDS-PAGE sample buffer was added. Samples were resolved by SDS-PAGE and phosphorylated c-Jun was visualized using a Molecular Dynamics PhosphorImager.

[6] = tested on: rat JNK2 mRNA; assay: Northern assay, rat JNK2 (p54a) mRNA levels in A10 aortic smooth muscle cells; format: cell-based; settings: Northern assays
Method: as §4, §5

15346 (antisense CTCTCTGTAGGCCCGCTTGG; gapmer: P=S, 2'-MOE wings, 2'-deoxy core, chemistry not fully specified) [compound 15346]
RNA % Inhibition ([1]; t = 48 h): 95.7% | RNA % Inhibition ([1]; t = 72 h): 89.4%

14319 (dG*dT*dG*dC*dG*dC*dG*dC*dG*dA*dG*dC*dC*dC*dG*dA*dA*dA*dT*dC) [compound 14319]
response of JNK2 mRNA levels in A549 cells (dose and sequence dependence) [2]: neither of the control oligonucleotides effect any consistent response

14320 (sense CCAAGCGGGCCTACAGAGAG; DNA, all phosphorothioate, methylation of C not given here) [compound 14320]
response of JNK1 mRNA levels in A549 cells (dose and sequence dependence) [1]: neither of the control oligonucleotides effect any consistent response

12560 (antisense dG*dT*dC*dC*dG*dG*dG*dC*dC*dA*dG*dG*dC*dC*dA*dA*dA*dG*dT*dC) [compound 12560]
level of inhibition of JNK2 ([2]; for at least about 12 hours following the 4 hour treatment): greater than or equal to 80% | level of inhibition of JNK2 ([2]; up to at least about t=48 h): greater than or equal to 60%

21859 (antisense e[5mC]eTe[5mC]eAeT*dG*dA*dT*dG*dG*d[5mC]*dA*dA*dG*d[5mC]*eAeAeTeTeA) [compound 21859]
specific modulation of mRNA encoding JNK1 (dose response) [3]: specifically modulates levels of mRNA encoding JNK1 and JNK2, respectively

14318 (sense dG*dA*dC*dT*dT*dT*dG*dG*dC*dC*dT*dG*dG*dC*dC*dC*dG*dG*dA*dC) [compound 14318]
response of JNK2 mRNA levels in A549 cells (dose and sequence dependence) [2]: neither of the control oligonucleotides effect any consistent response

14321 (CTTTCCGTTGGACCCCTGGG; DNA, all phosphorothioate, methylation of C not given here) [compound 14321]
response of JNK1 mRNA levels in A549 cells (dose and sequence dependence) [1]: neither of the control oligonucleotides effect any consistent response

101759 (antisense GCTCAGTGGACATGGATGAG; sugars from the 5' end e5 d10 e5, all phosphorothioate, methylation of C not given here) [compound 101759]
Percent Inhibition of human JNK2 mRNA ([4]; 1 uM): 14% | Percent Inhibition of human JNK2 mRNA ([4]; 5 uM): 56% | Percent Inhibition of human JNK2 mRNA ([4]; 20 uM): 92%

15353 (antisense GTCCGGGCCAGGCCAAAGTC; P=S gapmer, 2'-MOE wings, chemistry not fully specified) [compound 15353]
inhibition of TNFa-induced JNK activity [5]: approximately 55%

18259 (antisense eGe[5mC]eTe[5mC]eA*dG*dT*dG*dG*dA*d[5mC]*dA*dT*dG*dG*eAeTeGeAeG) [compound 18259]
specific modulation of mRNA encoding JNK2 (dose response) [6]: specifically modulates levels of mRNA encoding JNK1 and JNK2, respectively

12539 (antisense CTCTCTGTAGGCCCGCTTGG; DNA, all phosphorothioate, methylation of C not given here) [compound 12539]
response of JNK1 mRNA levels in A549 cells (dose and sequence dependence) [1]: dependent on dose in an approximately linear fashion | RNA % Inhibition ([1]; t = 48 h): 93.3% | RNA % Inhibition ([1]; t = 72 h): 88.3% | response of JNK2 mRNA levels in A549 cells (dose and sequence dependence) [2]: dependent on dose in an approximately linear fashion
